Test results taken from a melting point compilation (Tetko et al.; mined from patent text by program, amines drawn as free bases though some values may be those of a salt).

melting point [°C] | Compound
208 to 210 | Cc1c(-c2cc(C(F)(F)F)cc(C(F)(F)F)c2)ccc2nc(N=CN(C)C)nc(N=CN(C)C)c12
184 | CCc1c(C)c(=O)oc2cc(O)ccc12
120 | CC(C)(C)OC(=O)NCCCCC(=O)N[C@@H](CC(=O)OCc1ccccc1)C(=O)N[C@@H](Cc1ccccc1)C(=O)OCc1ccccc1
210 to 212 | CCOC(=O)C1=C(C)Nc2nnnn2C1c1cccc([N+](=O)[O-])c1 (stereo unspecified)
270 to 272 | COc1cc2nc(N)nc(-c3ccc(Br)cc3)c2cc1OC
130 to 132 | CCOc1cccc(Cn2ncc3c(N4CCN(C(=O)OC(C)(C)C)CC4)ncnc32)n1
225 to 228 | Cc1nc(N2CCN(Cc3cccc4cccnc34)C2=O)sc1C(=O)NCc1cccnc1
144 to 145 | C/C(Cn1oc(=O)[nH]c1=O)=C(\C)c1cccc(OCc2nc(-c3ccc(C(F)(F)F)cc3)oc2C)c1
111 to 112 | COc1ccc(C(O)(Cc2ccccc2)c2ccccc2)cc1 (stereo unspecified)
157 to 159 | COc1cccc(CCc2c(CCNC(=O)CCCCC(=O)NCCc3ccc(NS(C)(=O)=O)cc3)ccc(OC)c2OC)c1
229 | CC1=C(C(=O)OC(C)C)C(c2cccc([N+](=O)[O-])c2)c2c(nc(N3CCOCC3)nc2N2CCOCC2)N1 (stereo unspecified)
262 | CN1C(C(=O)Nc2nc3ccccc3s2)=C(O)c2ccc3ccccc3c2S1(=O)=O
74 to 75 | Cc1cc(Cl)cc(Cl)c1OC(=O)c1ccc(CCl)cc1
229 to 232 | CCOc1ccc(-c2nn(C(C)c3oc4ccccc4c(=O)c3-c3cccc(F)c3)c3ncnc(N)c23)cc1 (stereo unspecified)
202 to 204 | N#CCC(=O)NC1CCCCC1NC(=O)CC#N (stereo unspecified)
114 to 115 | N#Cc1ccc(C2NCCc3ccccc32)cc1 (racemic)
183 to 185 | CCOC(=O)c1ccc(NC(=O)c2c(OC)cccc2OC)cc1
175 to 179 | CCCCCC(=N)NC(=O)Nc1ccc(Cl)cc1
71 to 73 | CCOC(=O)c1ccc(C#Cc2ccc(C)cc2)c(OC)c1
170 to 172 | CCOC(=O)c1ccc(N=C(Nc2ccc(C(=O)OCC)cc2)c2ccccc2)cc1
200 to 202 | CCOC(=O)c1cn(C2CC2)c2c(C)c(N3CCN(C(=O)OCC)CC3)c(F)cc2c1=O
256 to 258 | Cn1c(=O)nc(-c2ccccc2)c2ccsc21
173 to 174 | Cc1sc(-c2ccco2)nc1O

melting point [°C] | Compound
118 to 119 | O=C(c1ccc(CBr)cc1)c1ccc(CBr)cc1
95 to 96 | CNCCOc1ccc(C(=O)NC)cc1
235 to 238 | CC=CN(C=CC)c1ccc2[nH]c3cnc(C(=O)OCC)cc3c2c1
> 310 | Nc1ccc(Br)cc1CC1NC(=O)NC1=O (stereo unspecified)
178 to 179 | O=C(O)CO[C@@H]1COc2nc([N+](=O)[O-])cn2C1
166 to 179 | CCCCNS(=O)(=O)c1ccc(N2CCC(NC[C@H](O)COc3cccc4[nH]c5ccccc5c34)CC2)cc1
116 to 123 | Cc1cc(Br)c2ncn([C@H](C)[C@](O)(Cn3cncn3)c3ccc(F)cc3F)c(=O)c2c1
76.1 to 80.1 | Cc1ncc(CO)c2c1OC(C(F)(F)F)C(C(=O)O)=C2 (stereo unspecified)
193 | CC(O)c1sccc1S(=O)(=O)N(C)c1cccc2cc(-c3nccs3)[nH]c12 (stereo unspecified)
206 to 209 | C=Cc1ccc2c(c1)C[C@H](C(=O)N1CCC[C@H](C)C1)N2c1cccnn1
166 to 170 | Nc1cc(OCc2ccccc2)ccc1NC(=O)c1ccc(OCc2ccccc2)c(C23CC4CC(CC(C4)C2)C3)c1
81 to 85 | CN1CCN(c2cc(NC(=O)OC(C)(C)C)c(N)cc2C#Cc2ccccc2)CC1
219 to 221 | O=C1COC(C#Cc2cccnc2)(C(F)(F)F)c2cc(Cl)ccc2N1 (stereo unspecified)
73 to 74 | Brc1c(OCc2ccccc2)cccc1C1OCCCO1
285 to 286 | CC(C)(C)c1cc(Cl)n2ncnc2n1
140 to 142 | Cc1ccccc1COC(=O)c1ccc(C(=O)N2Cc3ccccc3Cc3ccccc32)cc1
163 | Cc1ccnc(NC(=O)c2ccn3c2CSC3c2cccnc2)c1 (stereo unspecified)
139 to 148 | COc1c(Nc2ncc(Cl)c(N[C@H]3[C@@H](C(N)=O)[C@@H]4C=C[C@H]3C4)n2)ccc2c1CC(N1CCOCC1)CCC2 (stereo partly specified)
239 to 241 | CCNCC1CCN(c2c(F)cc3c(=O)c(C(=O)O)cn(C4CC4)c3c2C(F)(F)F)C1 (stereo unspecified)
271 | CC(C)(CO)NS(=O)(=O)c1cccc(NC(=O)c2cnn3c(C(F)(F)F)cc(-c4ccc(Cl)cc4)nc23)c1
118 | CC12CCC(C(=Cc3ccccc3[N+](=O)[O-])C1=O)C2(C)C (stereo unspecified)
133 to 136 | Cc1c(C)c(N2CCN(c3ccc(C(C)O)cc3)CC2)c(C)c2c1OC(C)(C)C2 (stereo unspecified)
275 to 276 | O=c1cc(Oc2ccccc2)c(-c2nc[nH]n2)cn1-c1ccccc1

melting point [°C] | Compound
70 to 72 | CCOC(=O)C(=O)c1cc(OC)c(OCOC)c2c(Cc3ccccc3)cccc12
114 to 117 | ON=C1CCOc2ccccc21
163 to 165 | O=C(O)CCCOc1ccc(C2C3CC4CC(C3)CC2C4)cc1 (stereo unspecified)
100 | O[C@@H]1CN=C(c2cccc(Cl)c2)O[C@H]1c1ccccc1 (racemic)
110 to 111 | C=CCc1cc(C(C)=O)c(O)cc1OCCCCC(=O)O
177 to 178 | C=C(C)C(=O)Nc1cccc(OC(=O)Nc2ccccc2)c1
118 to 119 | CC(C#Cc1cccc(Oc2nccs2)c1)N(O)C(N)=O (stereo unspecified)
168 to 179 | Cc1cccc2c1N(Cc1c[nH]cn1)C(=O)C(NC(=O)Nc1cccc(-c3nnn[nH]3)c1)N=C2C1CCCCC1 (stereo unspecified)
238 | CNC(=O)NN=C(c1ccc([N+](=O)[O-])cc1)c1cc2c(cc1C[C@H](C)O)OCO2
69 to 70 | Cc1cc(Cl)c([N+](=O)[O-])c(Cl)n1
206 to 209 | COc1ccc(C(NC(=O)C(C)c2ccccc2)c2cccc(Nc3c(N)c(=O)c3=O)c2)cc1 (stereo unspecified)
208 to 210 | Cc1ccc(NC(=O)NN(C(=O)c2ccccc2)C(C)(C)C)cc1
131 to 134 | CN1CCCC1CCNc1ncc2c(c1C#N)-c1ccccc1C(c1ccc(Cl)c(Cl)c1)C2 (stereo unspecified)
101 to 104 | CC(=O)c1ccc(C(=O)N(C)C)o1
176 to 179 | CSc1nc(SC)nc(-n2c(C)nc3ccccc32)n1
59 to 61 | Oc1ccc(OC[C@@H](O)CNCCc2ccc(-n3c(CCC4CCCC4)nc4cccnc43)cc2)cc1
180 to 182 | O=c1[nH]c(=S)[nH]cc1CCCc1ccccc1
194 to 195 | CC(C)(C)c1nc(C=O)c[nH]1
84 to 86 | [N-]=[N+]=NCCCc1cn(S(=O)(=O)c2c(Cl)nc3sccn23)c2ccc(F)cc12
148 to 149 | Cc1ccc(S(=O)(=O)NCC(=O)c2ccccc2)cc1
205 | CN1CCN(S(=O)(=O)c2cccc(-c3cc(-c4nc(-c5ccc(C(F)(F)F)cc5)cc(C(F)(F)F)n4)ccn3)c2)CC1
108 to 110 | COC(=O)c1ccc(COc2c(C)c(C)c3c(c2C)C(c2ccc(C(C)C)cc2)C(C)(C)O3)cc1 (stereo unspecified)
124 to 125 | Cc1cncn1Cc1ccc(N)cc1

melting point [°C] | Compound
172 to 173 | N=C(N)NCCCOc1ccc2c(c1)N(Cc1ccccc1)C(=O)C(CC(=O)O)C2 (stereo unspecified)
168 to 169 | CNC1(CC2CCCCC2)C(=O)Nc2ccc(Cl)cc21 (stereo unspecified)
36 to 38 | CC(=O)c1cc(Cl)ccc1NS(=O)(=O)C(F)(F)F
226 to 230 | COc1cc(-c2nc(-c3ccc(N(C)C)cc3)c(C)[nH]2)ccc1OP(=O)(O)O
190 to 191 | COc1nc2ccccc2cc1NC(=O)N1CCN(c2cccc(O)c2)CC1
68 | COc1cc(C=O)cc(OC)c1O[Si](C)(C)C(C)(C)C
176 to 178 | CCOC(=O)c1cn(C2CC2)c2nc(Cl)c(F)cc2c1=O
294 to 296 | O=C(O)c1cccc(CNc2n[nH]c3ncnc(Nc4cccc(Cl)c4)c23)c1
181 to 183 | O=C1CCC(N2C(=O)c3cccc(CNC(=O)c4cccc(Br)n4)c3C2=O)C(=O)N1 (stereo unspecified)
170 to 171 | CCOC(N)=C(C#N)C(N)=S
146 to 148 | CC(=O)OC1(c2ccc3c(c2)OCO3)C(=O)N(Cc2ccc(Cl)cc2)c2ccccc21 (stereo unspecified)
145 to 147 | CCC(C)(CC)c1ccc(NC(=O)c2c(OC)cccc2OC)nn1
69 to 70 | CCOC(=O)COc1cc2cc(C(O)CC)sc2c(Cl)c1Cl (stereo unspecified)
152 to 155 | CCOc1c(C)c(N2CCN(c3ccc(C)cc3)CC2)c(C)c2c1OC(C)(C)C2
132 to 135 | O=[N+]([O-])c1cc2nc(Cl)n(C3OC(CO)C(O)C3O)c2cc1[N+](=O)[O-] (stereo unspecified)
176 to 178 | COc1ccc(Nc2ccncc2)c(C(=O)N2CCCCC2)c1
168 to 169 | Cc1cc(Oc2ccc(S(C)(=O)=O)nc2)cc2cc(C3=NCC(CC(=O)NC[C@@H](C)O)S3)[nH]c12 (stereo partly specified)
141 to 143 | CCN(CC)CCNC(=O)c1cc(Cl)c(N)cc1OCCCN1C(=O)c2ccccc2C1=O
157 to 159 | COc1cc2ncn([C@H](C)[C@](O)(Cn3cncn3)c3ccc(F)cc3F)c(=O)c2cc1OC
115 to 116 | O=C(CNC(=O)OCc1ccccc1)Nc1ccccc1C(=O)c1cccs1
127 to 128 | C[C@@H](C(=O)c1ccccc1)[C@H](NC(=O)C(F)(F)F)C(=O)OC(C)(C)C
104 to 105 | COC1(c2cc(F)cc(Sc3ccc(CONC(N)=O)cc3)c2)CCOCC1

Compound | melting point [°C]
O=C1CC(=O)N(c2ccccc2)c2cc(Cl)ccc2N1Cc1ccccc1 | 173 to 175
CC(=O)OC1CCC2(C)C(=CC(=NO)C3C2CCC2(C)C(OC(C)=O)CCC32)C1 (stereo unspecified) | 236 to 238
Cc1nc2ccc3c(c2o1)OC(CN1CC=C(c2ccccc2)CC1)CO3 (stereo unspecified) | 170 to 173
CN1CCC(N(C)c2n[nH]c(-c3ccc(Cl)cc3)c2-c2ccncc2)CC1 | 260 to 261
CC(C)(C)OC(=O)c1ncn2c1[C@@H]1CCCN1C(=O)c1c-2ccc(N)c1Br | 245 to 246
